The results in this text go back to patent US12172983B2, “EGFR inhibitors” (Blueprint Medicines Corporation, priority 2019, dated 2024).

Experiment [1] relates to phosphorylation of EGFR (Tyr1068) in NCI-H1975 cell line that harbors the EGFR L858R T790M mutations. Nature of the experiment: NCI-H1975 pEGFR AlphaLISA assay. As to conditions: 4-5 hours incubation, read-out: Ext pEGFR H1975. In kind it is cell-based. Summed up: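 Phospho-EGFR Tyr1068 AlphaLISA readout: lysates taken from compound-treated H1975 cells (L858R T790M EGFR) after a 4-5 h exposure at 37 °C. Cells had adhered overnight beforehand. IC50 derived by plotting % pEGFR inhibition against log compound concentration.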
(In Alpha technology, singlet oxygen from a donor bead excites a nearby acceptor bead.)

In experiment [2] the test system is pEGFR_LR/TM/G796S mutant EGFR expressing Ba/F3 cells. The experiment in a line: pEGFR_LR/TM/G796S AlphaLISA assay in Ba/F3 cells. The settings on record: Mus musculus, BaF3, 4 hrs incubation, geometric mean, read-out: Ext pEGFR_LR/TM/G796S GMean IC50. In kind it is cell-based. The procedure:
Mutant EGFR expressing Ba/F3 cells were resuspended in fresh 10% FBS RPMI and plated at 1.0×10^6 cells/mL. On the next day, the cells were harvested and diluted in fresh medium at 1.25×10^6 cells/mL. 40 μL of cells were added to each well of a 384-well microplate (Corning 3764). In a clear 384-well polypropylene microplate, test compounds and DMSO were added. DMSO was a negative control and staurosporine was a positive control. The cell plate was placed in a humidified 37° C. incubator for 4 hrs. The cell plate was spun to pellet the cells and the media was removed. 10 μL of 1×AlphaLISA Lysis Buffer with 1× protease and phosphatase inhibitors was added to the cells and plate was shaken at 600 rpm for 30 min. The cell lysates were transferred from cell plate to a white opaque 384-well microplate (OptiPlate-384). 5 μL of acceptor mix was added to the cell lysate and the plate was shaken at 600 rpm for 10 min, gently tapped and sealed with foil. It was then incubated at RT for 1.5-2 hr. Under low light conditions, lx donor mix was prepared right prior to use. 5 μL of donor mix was added to the plate under subdued lighting or green filters. The plate was shaken at 600 rpm for 10 min, gently tapped and sealed with foil. It was then incubated overnight at RT in dark. After overnight incubation, the plate was read on an EnVision Multilabel Reader. All IC50 representative curves were plotted using GraphPad Prism (version 8.00 for Windows, GraphPad Software, San Diego California USA). The percentage of inhibition on EGFR phosphorylation was calculated following equation below: […]
An IC50 was calculated by fitting the curve using Nonliner fit with log(inhibitor) vs. response−Variable slope (four parameters) model.

Another experiment concerns the target T1, EGFR (L858R T790M C797S) (Homo sapiens, UniProt P00533, C797S/L858R/T790M).
T1 construct: purchased SignalChem E10-122VG
The experiment in a line: Biochemical EGFR inhibition assay (Caliper mobility shift), EGFR LRTMCS mutant. As to conditions: inhibitory activity against EGFR LRTMCS mutant; apparent IC50; read-out: Ext Enz LRTMCS. Summed up: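 Each enzyme was allowed to phosphorylate 10–20% of its peptide at 25° C. before EDTA (35 mM) quench. Separated substrate and product peaks were measured by mobility shift, giving apparent IC50 values.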

The mark [3] stands for this setting: Homo sapiens, NCI-H1975, inhibition of phosphorylation of mutant EGFR in NCI-H1975 cells.
The mark [4] stands for this setting: inhibition of phosphorylation of mutant EGFR in NCI-H1975 cells.

Like-named read-outs stand apart in the source and are kept apart here. Some results are limits rather than exact numbers.

Regarding `CC(C)c1ccc(N2CC(CS(C)(=O)=O)C2)c2cnc(Nc3ccnc(N4CC[C@@H](O)[C@@](C)(F)C4)n3)cc12` (single isomer, unassigned) [Compound 55], the IC50 was at most 10 nM in experiment [1] (setting [3]) and at most 20 nM in experiment [2].
In the same order, the values of `CC(C)c1ccc(N2C[C@H](CS(C)(=O)=O)[C@H]2C)c2cnc(Nc3ccnc(N4CC[C@@H](O)[C@@](C)(F)C4)n3)cc12` (single isomer, unassigned) [Compound 111] are at most 10 nM and 20.1 to 100 nM.
Consider `CC(C)c1ccc(N2C[C@H](CS(C)(=O)=O)[C@H]2C)c2cnc(Nc3ccnc(N4CC[C@@](C)(O)[C@@H](F)C4)n3)cc12` (single isomer, unassigned) [Compound 117], for which the IC50 at EGFR (L858R T790M C797S) is at most 15 nM; in experiment [1] (setting [3]), at most 10 nM; in experiment [2], 250 to 750 nM.
Taken in the same sequence, the figures for `CC(C)c1ccc(N2C[C@H](CS(C)(=O)=O)[C@H]2C)c2cnc(Nc3ccnc(N4CC[C@](C)(O)[C@H](F)C4)n3)cc12` (single isomer, unassigned) [Compound 118] were at most 15 nM, at most 10 nM and 250 to 750 nM.
On to `[2H]C([2H])([2H])O[C@@H]1CCN(c2nccc(Nc3cc4c(C(C)C)ccc(N5C[C@H](CS(C)(=O)=O)[C@H]5C)c4cn3)n2)C[C@@H]1F` (single isomer, unassigned) [Compound 282], for which the IC50 was at most 10 nM in experiment [1] (setting [3]) and 20.1 to 100 nM in experiment [2].
As to `[2H]C([2H])([2H])O[C@H]1CCN(c2nccc(Nc3cc4c(C(C)C)ccc(N5C[C@H](CS(C)(=O)=O)[C@H]5C)c4cn3)n2)C[C@H]1F` (single isomer, unassigned) [Compound 283], the IC50 in experiment [1] (setting [3]) was at most 10 nM; in experiment [2], 20.1 to 100 nM.
For the compound `CCS(=O)(=O)CC1CN(c2ccc(C(C)C)c3cc(Nc4ccnc(N5CC[C@@H](OCCO)[C@@H](F)C5)n4)ncc23)C1` [Compound 292, 2-{[(3S,4R)-1-{4-[(8-{3-[(ethanesulfonyl)methyl]azetidin-1-yl}-5-(propan-2-yl)isoquinolin-3-yl)amino]pyrimidin-2-yl}-3-fluoropiperidin-4-yl]oxy}ethan-1-ol], the IC50 at EGFR (L858R T790M C797S) is at most 15 nM; in experiment [1] (setting [3]), at most 10 nM.
In the same order, the values of `CCS(=O)(=O)CC1CN(c2ccc(C(C)C)c3cc(Nc4ccnc(N5CC[C@H](OCCO)[C@H](F)C5)n4)ncc23)C1` [Compound 293, 2-{[(3R,4S)-1-{4-[(8-{3-[(ethanesulfonyl)methyl]azetidin-1-yl}-5-(propan-2-yl)isoquinolin-3-yl)amino]pyrimidin-2-yl}-3-fluoropiperidin-4-yl]oxy}ethan-1-ol] are at most 15 nM and at most 10 nM.
Regarding `CNCCO[C@H]1CCN(c2nccc(Nc3cc4c(C(C)C)ccc(N5C[C@H](CS(C)(=O)=O)[C@H]5C)c4cn3)n2)C[C@H]1F` [Compound 297, N-{2-[(3R,4S)-3-fluoro-4-[2-(methylamino)ethoxy]piperidin-1-yl]pyrimidin-4-yl}-8-[(2R,3S)-3-(methanesulfonylmethyl)-2-methylazetidin-1-yl]-5-(propan-2-yl)isoquinolin-3-amine], the values for the IC50 (at EGFR (L858R T790M C797S); in experiment [1] (setting [3])) were at most 15 nM and at most 10 nM, respectively.
Taken in the same sequence, the figures for `CCS(=O)(=O)C[C@H]1CN(c2cnc(C(C)C)c3cc(Nc4ccnc(N5CC[C@@H](OCCO)[C@@H](F)C5)n4)ncc23)[C@@H]1C` [Compound 298, 2-{[(3S,4R)-1-[4-({8-[(2R,3S)-3-[(ethanesulfonyl)methyl]-2-methylazetidin-1-yl]-5-(propan-2-yl)-2,6-naphthyridin-3-yl}amino)pyrimidin-2-yl]-3-fluoropiperidin-4-yl]oxy}ethan-1-ol] were at most 15 nM and at most 10 nM.
On to `CCS(=O)(=O)C[C@H]1CN(c2cnc(C(C)C)c3cc(Nc4ccnc(N5CC[C@H](OCCO)[C@H](F)C5)n4)ncc23)[C@@H]1C` [Compound 299, 2-{[(3R,4S)-1-[4-({8-[(2R,3S)-3-[(ethanesulfonyl)methyl]-2-methylazetidin-1-yl]-5-(propan-2-yl)-2,6-naphthyridin-3-yl}amino)pyrimidin-2-yl]-3-fluoropiperidin-4-yl]oxy}ethan-1-ol], for which the IC50 was at most 15 nM on EGFR (L858R T790M C797S) and at most 10 nM in experiment [1] (setting [3]).
Taken in the same sequence, the figures for `CC(C)c1ccc(N2C[C@H](CS(C)(=O)=O)[C@H]2C)c2cnc(Nc3ccnc(N4CC[C@H](O)[C@H](F)C4)n3)cc12` [Compound 311, (3R,4S)-3-fluoro-1-[4-({8-[(2R,3S)-3-(methanesulfonylmethyl)-2-methylazetidin-1-yl]-5-(propan-2-yl)isoquinolin-3-yl}amino)pyrimidin-2-yl]piperidin-4-ol] were at most 15 nM and at most 10 nM.
Taken in the same sequence, the figures for `[2H]C([2H])([2H])O[C@@H]1CCN(c2nccc(Nc3cc4c(C5CC5)ccc(N5C[C@H](CS(C)(=O)=O)[C@H]5C)c4cn3)n2)C[C@@H]1F` [Compound 315, 5-cyclopropyl-N-(2-((3S,4R)-3-fluoro-4-(^2H3)piperidin-1-yl)pyrimidin-4-yl)-8-((2R,3S)-2-methyl-3-((methylsulfonyl)methyl)azetidin-1-yl)isoquinolin-3-amine] were at most 15 nM and at most 10 nM.
In the same order, the values of `[2H]C([2H])([2H])O[C@H]1CCN(c2nccc(Nc3cc4c(C5CC5)ccc(N5C[C@H](CS(C)(=O)=O)[C@H]5C)c4cn3)n2)C[C@H]1F` [Compound 316, 5-cyclopropyl-N-(2-((3R,4S)-3-fluoro-4-(^2H3)piperidin-1-yl)pyrimidin-4-yl)-8-((2R,3S)-2-methyl-3-((methylsulfonyl)methyl)azetidin-1-yl)isoquinolin-3-amine] are at most 15 nM and at most 10 nM.
For “(R)-ethyl({1-[3-({2-[(3S,4R)-3-fluoro-4-methoxypiperidin-1-yl]pyrimidin-4-yl}amino)-5-(propan-2-yl)isoquinolin-8-yl]azetidin-3-yl}methyl)imino-λ^6-sulfanone or (S)-ethyl({1-[3-({2-[(3S,4R)-3-fluoro-4-methoxypiperidin-1-yl]pyrimidin-4-yl}amino)-5-(propan-2-yl)isoquinolin-8-yl]azetidin-3-yl}methyl)imino-λ^6-sulfanone [Compound 272]”, the IC50 on EGFR (L858R T790M C797S) is at most 15 nM; in experiment [1] (setting [4]) it was at most 10 nM.
In the same order, the values of “(R)-methyl({1-[3-({2-[(3R,4S)-3-fluoro-4-methoxypiperidin-1-yl]pyrimidin-4-yl}amino)-5-(propan-2-yl)isoquinolin-8-yl]azetidin-3-yl}methyl)imino-λ^6-sulfanone or (S)-methyl({1-[3-({2-[(3R,4S)-3-fluoro-4-methoxypiperidin-1-yl]pyrimidin-4-yl}amino)-5-(propan-2-yl)isoquinolin-8-yl]azetidin-3-yl}methyl)imino-λ^6-sulfanone [Compound 274]” are 15.1 to 20 nM and 10.1 to 20 nM.
In the same order, the values of “(S)-ethyl({1-[3-({2-[(3S,4R)-3-fluoro-4-methoxypiperidin-1-yl]pyrimidin-4-yl}amino)-5-(propan-2-yl)isoquinolin-8-yl]azetidin-3-yl}methyl)imino-λ^6-sulfanone or (R)-ethyl({1-[3-({2-[(3S,4R)-3-fluoro-4-methoxypiperidin-1-yl]pyrimidin-4-yl}amino)-5-(propan-2-yl)isoquinolin-8-yl]azetidin-3-yl}methyl)imino-λ^6-sulfanone [Compound 273]” are at most 15 nM and 20.1 to 30 nM.
